Experimental data as given in patent US20240158446A1, “CYCLIC COMPOUND HAVING SELECTIVE INHIBITORY ACTION ON KRAS OVER HRAS AND NRAS” (CHUGAI SEIYAKU KABUSHIKI KAISHA, priority 2021, published 2024).
Like-named read-outs stand apart in the source and are kept apart here. Where a SMILES comes first, the peptide text is derived from it. Bridges are numbered along the chain shown (N, C = ends). [ ]: non-standard residue; d: D form. The star is where a group is joined. hPhe(3-Cl-4-CF3) = N[C@@H](CCc1ccc(C(F)(F)F)c(Cl)c1)C(=O)O; NPrPhe(4-CF3) = CCCN[C@@H](Cc1ccc(C(F)(F)F)cc1)C(=O)O; NEtPhe(4-Me) = CCN[C@@H](Cc1ccc(C)cc1)C(=O)O; NMeGly(cPent) = CN[C@H](C(=O)O)C1CCCC1; Gly(cPent) = N[C@H](C(=O)O)C1CCCC1; NMeD = CN[C@@H](CC(=O)O)C(=O)O; NMeL = CN[C@@H](CC(C)C)C(=O)O; Morpholide = C1CN(*)CCO1; NMeA = CN[C@@H](C)C(=O)O; Ac5c = NC1(C(=O)O)CCCC1; Aze = O=C(O)[C@@H]1CCN1; NEtG = CCNCC(=O)O; Sar = CNCC(=O)O

Experiments:
[1] = molecular target: GDP-bound NRAS wild-type protein (Homo sapiens, UniProt P01111); test: Binding to NRAS by surface plasmon resonance (SPR), Single Cycle Kinetics; details: SPR, GDP-bound NRAS wild-type protein vs GDP-bound KRAS wild-type protein
GDP-bound NRAS wild-type protein, sequence (P01111 whole entry): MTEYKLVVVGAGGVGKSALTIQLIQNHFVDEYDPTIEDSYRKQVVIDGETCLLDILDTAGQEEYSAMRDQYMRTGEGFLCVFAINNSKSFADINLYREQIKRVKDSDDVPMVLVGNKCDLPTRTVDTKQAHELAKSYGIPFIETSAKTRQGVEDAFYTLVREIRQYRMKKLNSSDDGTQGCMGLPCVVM

[2] = molecular target: GDP-bound KRAS wild-type protein (Homo sapiens, UniProt P01116); test: Binding to KRAS by surface plasmon resonance (SPR), Single Cycle Kinetics; details: GDP-bound KRAS wild-type protein, read-out: KRAS KD
GDP-bound KRAS wild-type protein, sequence (P01116 whole entry): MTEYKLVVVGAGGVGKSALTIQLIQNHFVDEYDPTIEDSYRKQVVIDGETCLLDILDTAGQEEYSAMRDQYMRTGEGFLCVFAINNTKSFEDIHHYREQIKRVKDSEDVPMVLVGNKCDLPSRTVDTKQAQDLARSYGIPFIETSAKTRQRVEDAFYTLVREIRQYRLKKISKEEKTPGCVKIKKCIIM

[3] = molecular target: GDP-bound HRAS wild-type protein (Homo sapiens, UniProt P01112); test: Binding to HRAS by surface plasmon resonance (SPR), Single Cycle Kinetics; details: SPR, GDP-bound HRAS wild-type protein vs GDP-bound KRAS wild-type protein
GDP-bound HRAS wild-type protein, sequence (P01112 whole entry): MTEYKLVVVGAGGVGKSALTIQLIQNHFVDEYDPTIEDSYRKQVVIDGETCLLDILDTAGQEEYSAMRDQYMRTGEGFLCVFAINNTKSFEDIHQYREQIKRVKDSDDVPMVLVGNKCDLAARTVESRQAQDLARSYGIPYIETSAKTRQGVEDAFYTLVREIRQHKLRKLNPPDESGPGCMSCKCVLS

[4] = SPR Single Cycle Kinetics, 1:1 binding model
[5] = SPR, Single Cycle Kinetics, 1:1 binding model

Kd ([2]; SPR, Single Cycle Kinetics) [pM]	Kd [2, 4] [pM]	SMILES	NRAS/KRAS (ratio of KD value for NRAS to KD value for KRAS) [1]	HRAS/KRAS (ratio of KD value for HRAS to KD value for KRAS) [3]	other results
910		CCO[C@@H]1C[C@H]2C(=O)NC3(CC(C)(C)C3)C(=O)N(C)[C@@H](C(CC)CC)C(=O)N(C)[C@H](C(=O)N(C)C)CC(=O)N(C)[C@@H](CC3CCC3)C(=O)N[C@@H]([C@@H](C)CC)C(=O)N(C)CC(=O)N(C)[C@H]3C/C=C\CCN(C3=O)[C@@H](Cc3ccc(C)cc3)C(=O)N(C)CC(=O)N[C@@H](CCc3ccc(Cl)c(Cl)c3)C(=O)N2C1 [PP2120]	AA (a compound having 20 or more is denoted as AA)	A (a compound having 10 or more and less than 20 is denoted as A)	
660		CCC[C@H]1C(=O)N[C@@H]([C@@H](C)CC)C(=O)N(C)CC(=O)N(C)[C@H]2C/C=C\CCN(C2=O)[C@@H](Cc2ccc(C(F)(F)F)cc2)C(=O)N(C)CC(=O)N[C@@H](CCc2ccc(C(F)(F)F)c(Cl)c2)C(=O)N2CC3(CC3)C[C@H]2C(=O)NC2(CC(C)(C)C2)C(=O)N(C)[C@@H](CC(C)C)C(=O)N(C)[C@H](C(=O)N(C)C)CC(=O)N1C [PP2987]	AA (a compound having 20 or more is denoted as AA)	A (a compound having 10 or more and less than 20 is denoted as A)	
36		CC[C@H](C)[C@@H]1NC(=O)[C@H](C)N(C)C(=O)C[C@@H](C(=O)N(C)C)N(C)C(=O)[C@H](C2CCCC2)N(C)C(=O)C2(CCC2)NC(=O)[C@@H]2CC(F)(F)CN2C(=O)[C@H](CCc2cc(F)c(C(F)(F)F)c(F)c2)NC(=O)CN(C)C(=O)[C@H](Cc2ccc(C(F)(F)F)cc2)N2CC/C=C\C[C@@H](C2=O)N(C)C(=O)CN(C)C1=O [PP1103, (2S,8S,14S,20S,23S,27S,30S,36S,38Z)-20-cyclopentyl-8-[2-[3,5-difluoro-4-(trifluoromethyl)phenyl]ethyl]-12,12-difluoro-N,N,4,19,22,26,27,32,35-nonamethyl-30-[(1S)-1-methylpropyl]-3,6,9,15,18,21,25,28,31,34,42-undecaoxo-2-[[4-(trifluoromethyl)phenyl]methyl]spiro[1,4,7,10,16,19,22,26,29,32,35-undecazatricyclo[34.5.1.0^10,14]dotetracont-38-ene-17,1′-cyclobutane]-23-carboxamide]	A (a compound having 10 or more and less than 20 is denoted as A)	B (a compound having 3 or more and less than 10 is denoted as B)	
45		CCO[C@@H]1C[C@H]2C(=O)NC3(CCC3)C(=O)N(C)[C@@H](C3CCCC3)C(=O)N(C)[C@H](C(=O)N(C)C)CC(=O)N(C)[C@@H](CC3CC3)C(=O)N[C@@H]([C@@H](C)CC)C(=O)N(C)CC(=O)N(C)[C@H]3C/C=C\CCN(C3=O)[C@@H](Cc3ccc(C(F)(F)F)cc3)C(=O)N(C)CC(=O)N[C@@H](CCc3cc(F)c(C(F)(F)F)c(F)c3)C(=O)N2C1 [PP1111, (2S,8S,12R,14S,20S,23S,27S,30S,36S,38Z)-20-cyclopentyl-27-(cyclopropylmethyl)-8-[2-[3,5-difluoro-4-(trifluoromethyl)phenyl]ethyl]-12-ethoxy-N,N,4,19,22,26,32,35-octamethyl-30-[(1S)-1-methylpropyl]-3,6,9,15,18,21,25,28,31,34,42-undecaoxo-2-[[4-(trifluoromethyl)phenyl]methyl]spiro[1,4,7,10,16,19,22,26,29,32,35-undecazatricyclo[34.5.1.0^10,14]dotetracont-38-ene-17,1′-cyclobutane]-23-carboxamide]	A (a compound having 10 or more and less than 20 is denoted as A)	A (a compound having 10 or more and less than 20 is denoted as A)	
	50	CC[C@H](C)[C@@H]1NC(=O)[C@H](CC(C)C)N(C)C(=O)C[C@@H](C(=O)N2CCCC2)N(C)C(=O)[C@H](C2CCCC2)N(C)C(=O)C2(CCCC2)NC(=O)[C@@H]2CCCN2C(=O)[C@H](CCc2cc(F)c(C(F)(F)F)c(F)c2)NC(=O)CN(C)C(=O)[C@H](Cc2ccc(C(F)(F)F)cc2)N2CCCC[C@@H](C2=O)N(C)C(=O)CN(C)C1=O [PP0571]			NRAS/KRAS (ratio of KD value with respect to NRAS to KD value with respect to KRAS) [1]: B (a compound having 3 or more and less than 10 is denoted as B); HRAS/KRAS (ratio of KD value with respect to HRAS to KD value with respect to KRAS) [3]: B (a compound having 3 or more and less than 10 is denoted as B)
	390	CC[C@H](C)[C@@H]1NC(=O)[C@H](CC(C)C)N(C)C(=O)C[C@@H](C(=O)N2CCOCC2)N(C)C(=O)[C@H](C2CCCC2)N(C)C(=O)C2(CCCC2)NC(=O)[C@@H]2CCCN2C(=O)[C@H](CCc2ccc(C(F)(F)F)c(Cl)c2)NC(=O)CN(C)C(=O)[C@H](Cc2ccc(F)cc2)N2CCCCC[C@@H](C2=O)N(C)C(=O)CN(C)C1=O [PP0612]			NRAS/KRAS (ratio of KD value with respect to NRAS to KD value with respect to KRAS) [1]: B (a compound having 3 or more and less than 10 is denoted as B); HRAS/KRAS (ratio of KD value with respect to HRAS to KD value with respect to KRAS) [3]: B (a compound having 3 or more and less than 10 is denoted as B)
	1500	CC[C@H](C)[C@@H]1NC(=O)[C@H](CC(C)C)N(C)C(=O)C[C@@H](C(=O)N2CCOCC2)N(C)C(=O)[C@H](C2CCCC2)N(C)C(=O)C2(CCCC2)NC(=O)[C@@H]2CCCN2C(=O)[C@H](CCc2ccc(C(F)(F)F)c(Cl)c2)NC(=O)CN(CC)C(=O)[C@H](Cc2ccc(C)cc2)N(CC)C(=O)[C@@H]2CCN2C(=O)[C@H](C)N(C)C1=O [PP0006] ([NMeL]I[NMeA][Aze][NEtPhe(4-Me)][NEtG][hPhe(3-Cl-4-CF3)]P[Ac5c][NMeGly(cPent)][NMeD]-Morpholide; lactam N-11)	C (A compound having a KD ratio of 0.1 or more and less than 3 is denoted as C)	C (A compound having a KD ratio of 0.1 or more and less than 3 is denoted as C)	
	170	CCCN1C(=O)[C@@H]2CCN2C(=O)[C@H](C)N(C)C(=O)[C@H](C2CCCC2)NC(=O)[C@H](CC(C)C)N(C)C(=O)C[C@@H](C(=O)N2CCOCC2)N(C)C(=O)[C@H](C2CCCC2)N(C)C(=O)C2(CCCC2)NC(=O)[C@@H]2CCCN2C(=O)[C@H](CCc2ccc(C(F)(F)F)c(Cl)c2)NC(=O)CN(C)C(=O)[C@@H]1Cc1ccc(C(F)(F)F)cc1 [PP0272] ([NMeL][Gly(cPent)][NMeA][Aze][NPrPhe(4-CF3)][Sar][hPhe(3-Cl-4-CF3)]P[Ac5c][NMeGly(cPent)][NMeD]-Morpholide; lactam N-11)	C (A compound having a KD ratio of 0.1 or more and less than 3 is denoted as C)	B (a compound having 3 or more and less than 10 is denoted as B)	
		CCO[C@@H]1C[C@H]2C(=O)NC3(CC(C)(C)C3)C(=O)N(C)[C@@H](C3CCCC3)C(=O)N3CCC[C@@H]3CC(=O)N(C)[C@@H](CC)C(=O)N[C@@H]([C@@H](C)CC)C(=O)N(C)CC(=O)N(C)[C@H]3C/C=C\CCN(C3=O)[C@@H](Cc3ccc(C(F)(F)F)cc3)C(=O)N(C)CC(=O)N[C@@H](CCc3cc(F)c(C(F)(F)F)c(F)c3)C(=O)N2C1 [PP1606]			NRAS/KRAS (ratio of KD value for NRAS to KD value for KRAS) ([1]; KD ratio class): B (a compound having 3 or more and less than 10 is denoted as B); Kd [2, 5]: 370 pM; HRAS/KRAS (ratio of KD value for HRAS to KD value for KRAS) ([3]; KD ratio class): B (a compound having 3 or more and less than 10 is denoted as B)
180		CCC[C@@H]1C[C@H]2C(=O)NC3(CCC3)C(=O)N(C)[C@@H](C3CCCC3)C(=O)N(C)[C@H](C(=O)N(C)C)CC(=O)N(C)[C@@H](CC(C)C)C(=O)N[C@@H]([C@@H](C)CC)C(=O)N(C)CC(=O)N(C)[C@H]3C/C=C\CCN(C3=O)[C@@H](Cc3ccc(C)cc3)C(=O)N(C)CC(=O)N[C@@H](CCc3cc(F)c(C(F)(F)F)c(F)c3)C(=O)N2C1 [PP2231]	A (a compound having 10 or more and less than 20 is denoted as A)	B (a compound having 3 or more and less than 10 is denoted as B)	
1600		CCO[C@@H]1C[C@H]2C(=O)NC3(CCC3)C(=O)N(C)[C@@H](C3CCCC3)C(=O)N(C)[C@H](C(=O)N3CCOCC3)CC(=O)N(C)[C@@H](Cc3ccc(C)cc3)C(=O)N[C@@H]([C@@H](C)CC)C(=O)N(C)CC(=O)N(C)[C@H]3CCCCCN(C3=O)[C@@H](Cc3ccc(C(F)(F)F)cc3)C(=O)N(C)CC(=O)N[C@@H](CCc3cc(F)c(C(F)(F)F)c(F)c3)C(=O)N2C1 [PP0933]	A (a compound having 10 or more and less than 20 is denoted as A)	B (a compound having 3 or more and less than 10 is denoted as B)	
230		CC[C@H](C)[C@@H]1NC(=O)[C@H](CC(C)C)N(C)C(=O)C[C@@H](C(=O)N2CCOCC2)N(C)C(=O)[C@H](C2CCCC2)N(C)C(=O)C2(CCCC2)NC(=O)[C@@H]2CC(F)(F)CN2C(=O)[C@H](CCc2ccc(C(F)(F)F)c(Cl)c2)NC(=O)CN(C)C(=O)[C@H](Cc2ccc(F)cc2)N2CCCCC[C@@H](C2=O)N(C)C(=O)CN(C)C1=O [PP0966]	B (a compound having 3 or more and less than 10 is denoted as B)	B (a compound having 3 or more and less than 10 is denoted as B)	
		CCO[C@@H]1C[C@H]2C(=O)NC3(CC(C)(C)C3)C(=O)N(C)[C@@H](C(CC)CC)C(=O)N(C)C(C(C)C)CC(=O)N(C)[C@@H](CC3CC3)C(=O)N[C@@H]([C@@H](C)CC)C(=O)N(C)CC(=O)N(C)[C@H]3C/C=C\CCN(C3=O)[C@@H](Cc3ccc(C(F)(F)F)cc3)C(=O)N(C)CC(=O)N[C@@H](CCc3cc(F)c(C(F)(F)F)c(F)c3)C(=O)N2C1 (stereo partly drawn) [PP1593]			NRAS/KRAS (ratio of KD value for NRAS to KD value for KRAS) ([1]; KD ratio class): A (a compound having 10 or more and less than 20 is denoted as A); Kd [2, 5]: 4300 pM; HRAS/KRAS (ratio of KD value for HRAS to KD value for KRAS) ([3]; KD ratio class): A (a compound having 10 or more and less than 20 is denoted as A)
